Experimental data taken from the supplement of paper PMC7600603.

Legend:
Conditions in all cases: 72 h; CellTox Green cytotoxicity
DLD1 NRF2-WT [1] = experiment: TC50 cytotoxicity; higher = less toxic
Outline: (§1)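 In 384-well plates, isogenic DLD1 cells with NRF2 wild-type or CRISPR-edited status, grown in DMEM with 10% FBS, received library compounds at 5 concentrations spanning a 10,000-fold range. At 72 h, CellTox Green signals were read on a Pherastar FS reader and scaled between vehicle wells and 100-μM positive-control wells. Cytotoxicity endpoints, TC50 and a drug sensitivity score based on normalised area under the curve, came from logistic dose-response fits.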

DLD1 NRF2-GOF [2] = experiment: TC50 cytotoxicity; higher = less toxic
Outline: as §1

DLD1 NRF2-WT [3] = experiment: drug sensitivity score (DSS) cytotoxicity (DSS score); higher = more toxic; extreme values may be limits of the assay
Outline: as §1

DLD1 NRF2-GOF [4] = experiment: as above
Outline: as §1

| Structure (SMILES) | TC50 cytotoxicity (DLD1 NRF2-WT [1]) | TC50 cytotoxicity (DLD1 NRF2-GOF [2]) | drug sensitivity score (DLD1 NRF2-WT [3]) | drug sensitivity score (DLD1 NRF2-GOF [4]) |
| --- | --- | --- | --- | --- |
| NC(=O)c1cccc(-c2cccc(OC(=O)NC3CCCCC3)c2)c1 [URB597] | > 1 µM | > 1 µM | 0 | 0 |
| CC[C@@H](C(=O)[C@@H](C)[C@@H](O)[C@H](C)[C@@H]1O[C@@H]([C@@H](CC)C(=O)O)CC[C@@H]1C)[C@H]1O[C@]2(C=C[C@@H](O)[C@]3(CC[C@@](C)([C@H]4CC[C@](O)(CC)[C@H](C)O4)O3)O2)[C@H](C)C[C@@H]1C [Salinomycin] | > 50 µM | > 50 µM | 0.2 | 0 |
| COc1cc2ncnc(Nc3cccc(Cl)c3F)c2cc1OC(=O)N1CCN(C)C[C@H]1C [AZD3759] | > 1 µM | > 1 µM | 0 | 0 |
| NC(=S)N/N=C/c1ncccc1N [Triapine] | > 10 µM | > 10 µM | 0 | 0 |
| CCOC(=O)C1=CCCC[C@H]1S(=O)(=O)Nc1ccc(F)cc1Cl [Resatorvid] | > 10 µM | > 10 µM | 0 | 0 |
| Cc1ccc(NC(=O)c2ccc(CN3CC[C@H](N(C)C)C3)c(C(F)(F)F)c2)cc1Nc1nccc(-c2cncnc2)n1 [Bafetinib] | > 1 µM | > 1 µM | 0 | 0 |
| CC1(C)CC[C@]2(NC(=O)C(C)(F)F)CC[C@]3(C)[C@H](C(=O)C=C4[C@@]5(C)C=C(C#N)C(=O)C(C)(C)[C@@H]5CC[C@]43C)[C@@H]2C1 [Omaveloxolone] | > 10 µM | > 10 µM | 0 | 0 |
| CN1CCN(c2cc(C(=O)Nc3ccc4c(c3)-c3c(c(C(N)=O)nn3-c3ccc(F)cc3)CC4)c(Cl)cn2)CC1 [PHA 408] | > 10 µM | > 10 µM | 0 | 0 |
| NC(=O)c1cccc2cn(-c3ccc(C4CCCNC4)cc3)nc12 (stereo not given) [Niraparib] | > 10 µM | > 10 µM | 0 | 0 |
| Nc1nc(NC2CC2)cc(-c2cccc(Cl)c2Cl)n1 [TH588] | > 25 µM | > 25 µM | 0 | 0 |
| Cc1cc2c(C(=O)NC[C@H](C)c3ccccc3)c(O)c(O)cc2c(O)c1-c1c(C)cc2c(C(=O)NC[C@H](C)c3ccccc3)c(O)c(O)cc2c1O [Sabutoclax] | > 25 µM | > 25 µM | 0 | 0 |
| O=C(Nc1cccc(Nc2ncc(Br)c(NCCc3cnc[nH]3)n2)c1)N1CCCC1 [BX-912] | > 10 µM | > 10 µM | 2.2 | 2.5 |
| Cn1nccc1Nc1nccc(-c2ccn([C@H](CO)c3ccc(Cl)c(F)c3)c(=O)c2)n1 [GDC-0994] | > 10 µM | > 10 µM | 0 | 0 |
| Cc1sc2c(c1C)C(c1ccc(Cl)cc1)=N[C@@H](CC(=O)Nc1ccc(O)cc1)c1nnc(C)n1-2 [Birabresib] | > 10 µM | > 10 µM | 0 | 0 |
| CCCCCOC(=O)Nc1nc(=O)n([C@@H]2O[C@H](C)[C@@H](O)[C@H]2O)cc1F [Capecitabine] | > 10 µM | > 10 µM | 0 | 0 |
| Nc1nc2cc(-c3ccc4ncc(C(=O)N5CCOCC5)n4c3)ccc2o1 [MLN1117] | > 10 µM | > 10 µM | 0 | 0 |
| O[C@H]1CC[C@H](Nc2ncc3nc(Nc4c(F)cc(F)cc4F)n([C@H]4CCOC4)c3n2)CC1 [Tanzisertib] | > 10 µM | > 10 µM | 0 | 0 |
| Nc1cccc2c1CN(C1CCC(=O)NC1=O)C2=O (stereo not given) [Lenalidomide] | > 100 µM | > 100 µM | 0 | 0 |
| Cc1c(-c2ccc(N3CCc4cccc(C(=O)Nc5nc6ccccc6s5)c4C3)nc2C(=O)O)cnn1CC12CC3CC(CC(C3)C1)C2 |  | > 1 µM |  | 0 |
| COc1cc2c(NC3CCN(C(C)C)CC3)nc(N3CCC(F)(F)CC3)nc2cc1OCCCN1CCCC1 [UNC0642] | > 10 µM | > 10 µM | 0 | 0.1 |

| Structure (SMILES) | TC50 cytotoxicity (DLD1 NRF2-WT [1]) | TC50 cytotoxicity (DLD1 NRF2-GOF [2]) | drug sensitivity score (DLD1 NRF2-WT [3]) | drug sensitivity score (DLD1 NRF2-GOF [4]) |
| --- | --- | --- | --- | --- |
| COc1cc(C(=O)O)ccc1NC(=O)[C@@H]1N[C@@H](CC(C)(C)C)[C@](C#N)(c2ccc(Cl)cc2F)[C@H]1c1cccc(Cl)c1F [Idasanutlin] | > 10 µM | > 10 µM | 0 | 0 |
| CCN1C(=O)CNc2ncc(-c3ccc(-c4nc[nH]n4)nc3C)nc21 [CC-115] |  | > 10 µM | 1.4 | 0.1 |
| COC(=O)c1ccc2c(c1)[nH]c1ncnc(NCCCN3CCCCC3)c12 [UM729] | > 10 µM | > 10 µM | 0 | 0 |
| C[C@@H]1CCN(C(=O)CC#N)C[C@@H]1N(C)c1ncnc2[nH]ccc12 [Tofacitinib] | > 5 µM | > 5 µM | 0 | 0 |
| CC(O)(CS(=O)(=O)c1ccc(F)cc1)C(=O)Nc1ccc(C#N)c(C(F)(F)F)c1 (stereo not given) [Bicalutamide] | > 10 µM | > 10 µM | 0 | 0 |
| O=C(CCCCCCNC(=O)c1cnc(N(c2ccccc2)c2ccccc2)nc1)NO [Rocilinostat] | > 10 µM | > 10 µM | 0 | 0 |
| CCNCCS(=O)(=O)NC[C@@]1(c2ccccc2)SC(NC(=O)C(C)(C)C)=NN1C(=O)C(C)(C)C [Litronesib] | > 1 µM | > 1 µM | 0 | 1.6 |
| Nc1nc(OCc2cc(Br)cs2)c2[nH]cnc2n1 [Lomeguatrib] | > 10 µM | > 10 µM | 0 | 0 |
| CN(C)CCCOc1ccc(-c2ccc3ncc4c(c3c2)n(C2CCOCC2)c(=O)n4C)cn1 [AZD0156] | > 1 µM | > 1 µM | 0 | 0 |
| Nc1nc(Nc2ccc3c(c2)CC[C@@H](N2CCCC2)CC3)nn1-c1cc2c(nn1)-c1ccccc1CCC2 [BGB324] | > 10 µM | > 10 µM | 0 | 0 |
| CCN(CC)CCNC(=O)c1c(C)[nH]c(/C=C2\C(=O)Nc3ccc(-c4csc(-c5ccccc5)n4)cc32)c1C [Amcasertib] | > 10 µM | > 10 µM | 0 | 0 |
| Cn1cc(-c2ccc(F)c(C(F)(F)F)c2)nc1C1CCN(c2ncnc3[nH]ncc23)CC1 | > 10 µM | > 10 µM | 0 | 0 |
| Cc1ccc(-c2cc(C(F)(F)F)nn2-c2ccc(S(N)(=O)=O)cc2)cc1 [Celecoxib] | > 10 µM | > 10 µM | 0 | 0 |
| Cn1cnc2c(F)c(Nc3ccc(Br)cc3F)c(C(=O)NOCCO)cc21 [Binimetinib] | > 1 µM | > 1 µM | 0 | 0 |
| CCCCNc1ncc(C(=O)NCc2ccc(-n3ccnc3)cc2)c(NC2CCC(O)CC2)n1 (stereo not given) [UNC2881] | > 2.5 µM | > 2.5 µM | 0 | 0 |
| N#Cc1ccc2[nH]c(O)c(-c3ccc(CN4CCOCC4)cn3)c2c1 [AZD-1080] | > 10 µM | > 10 µM | 0 | 0 |
| COc1nc(N)nc2c1ncn2[C@@H]1O[C@H](CO)[C@@H](O)[C@@H]1O [Nelarabine] | > 10 µM | > 10 µM | 0 | 0 |
| CC(C)C[C@@H](C(=O)N[C@H](C(=O)OC1CCCC1)c1ccccc1)[C@H](O)C(=O)NO [Tosedostat] |  | > 10 µM | 4.9 | 4.6 |
| CCN(CC)Cc1ccc2cc(COC(=O)Nc3ccc(C(=O)NO)cc3)ccc2c1 [Givinostat] | 0.344 µM | > 1 µM | 1.6 | 0 |
| C=CCN(/C=C1/C(=O)O[C@H](COC)[C@@]2(C)C1=C(O)C(=O)C1=C2[C@H](OC(C)=O)C[C@]2(C)C(=O)CC[C@@H]12)CC=C [Sonolisib] | > 10 µM | > 10 µM | 0 | 0 |

| Structure (SMILES) | TC50 cytotoxicity (DLD1 NRF2-WT [1]) | TC50 cytotoxicity (DLD1 NRF2-GOF [2]) | drug sensitivity score (DLD1 NRF2-WT [3]) | drug sensitivity score (DLD1 NRF2-GOF [4]) |
| --- | --- | --- | --- | --- |
| NC(=O)/C(=C/n1cnc(-c2cc(C(F)(F)F)cc(C(F)(F)F)c2)n1)c1cncnc1 [KPT-8602] | > 10 µM | > 10 µM | 0 | 0 |
| CN(CC(=O)N(Cc1ccc(C2CCCCC2)cc1)c1ccc(C(=O)O)cc1)S(=O)(=O)c1c(F)c(F)c(F)c(F)c1F [SH-4-54] | > 25 µM | > 25 µM | 0 | 0 |
| NS(=O)(=O)OC[C@@H]1C[C@@H](n2ccc3c(N[C@H]4CCc5ccccc54)ncnc32)C[C@@H]1O [Pevonedistat] | > 10 µM | > 10 µM | 0 | 0 |
| COCCNCc1ccc(-c2cc3nccc(Oc4ccc(NC(=S)NC(=O)Cc5ccc(F)cc5)cc4F)c3s2)nc1 [Glesatinib] | > 2.5 µM | > 2.5 µM | 0 | 0 |
| CN(C)c1cc2c(cc1Sc1nc3c(N)nccc3n1CCNCC(C)(C)C)OCO2 [CUDC-305] | > 10 µM | > 10 µM | 0 | 0 |
| CCS(=O)(=O)N1CC(CC#N)(n2cc(-c3ncnc4[nH]ccc34)cn2)C1 [Baricitinib] | > 2.5 µM | > 2.5 µM | 0 | 0 |
| CN1CCN(c2ccc(C(=O)Nc3n[nH]c4ccc(Cc5cc(F)cc(F)c5)cc34)c(NC3CCOCC3)c2)CC1 [Entrectinib] | > 1 µM | > 1 µM | 0 | 0 |
| CN(C)Cc1ccc(S(=O)(=O)n2ccc(/C=C/C(=O)NO)c2)cc1 [Resminostat] | > 10 µM | > 10 µM | 0 | 0 |
| CN1CC[C@@H](NC(=O)Nc2ccc(C#N)cc2)C[C@@H]1c1nc2ccccc2[nH]1 [Glasdegib] | > 1 µM | > 1 µM | 0 | 0 |
| Cc1c(C(=O)Nc2ccc(N3C[C@@H](C)O[C@@H](C)C3)nc2)cccc1-c1ccc(OC(F)(F)F)cc1 [Sonidegib] | > 10 µM | > 10 µM | 0 | 0 |
| Cc1cc(Nc2nc(N[C@@H](C)c3ncc(F)cn3)ncc2Cl)[nH]n1 [AZD1480] | > 1 µM | > 1 µM | 0 | 0 |
| CS(=O)(=O)c1ccc(C(=O)Nc2ccc(Cl)c(-c3ccccn3)c2)c(Cl)c1 [Vismodegib] | > 10 µM | > 10 µM | 0 | 0 |
| CCC1(c2ccc(N)cc2)CCC(=O)NC1=O (stereo not given) [Aminoglutethimide] | > 10 µM | > 10 µM | 0 | 0 |
| Cc1c(F)cc(C(=O)NC2CC2)cc1-c1ccc(C(=O)NCC(C)(C)C)cn1 [Losmapimod] | > 10 µM | > 10 µM | 0 | 0 |
| COc1ccc(Cn2ccc3ccc(C(=O)NO)cc32)cc1 | > 10 µM | > 10 µM | 0 | 0 |
| O=C(O)CC1CC(c2ccccc2)=NO1 (stereo not given) [VGX-1027] | > 10 µM | > 10 µM | 0 | 0 |
| CC(C)[C@@H](CS(=O)(=O)C(C)C)N1C(=O)[C@@](C)(CC(=O)O)C[C@H](c2cccc(Cl)c2)[C@H]1c1ccc(Cl)cc1 [AMG-232] | > 10 µM | > 10 µM | 0 | 0 |
| Oc1nc(-c2ccc(C(F)(F)F)cc2)nc2c1CSCC2 [XAV-939] | > 10 µM | > 10 µM | 0 | 0 |
| CN(C(=O)c1ccc(F)cc1C(F)(F)F)C1CCN(c2nnc(-c3ccnn3C)c3ccccc23)CC1 [Taladegib] | > 10 µM | > 10 µM | 0 | 0 |
| O=C(c1cccc(Cl)c1F)N1CCN(Cc2cccc(Nc3nccs3)n2)CC1 [MK-8745] |  | 1.55 µM | 2 | 2.9 |
